Like-named read-outs stand apart in the source and are kept apart here.
Legend:
[1] = system: Methylomonas albus BG8 (NRRL B-11,200); assay: sec-alcohols to ketones by resting cell suspensions; type: cell-based
Description: (§1) The pH of the nutrient medium was adjusted to 7.0 by the addition of acid or base and 50 ml. samples of the nutrient medium were charged into a plurality of 300 ml. shaker flasks. The shaker flasks were inoculated with an inoculating loop of cells from an agar plate containing homogeneous colonies of the microorganisms on the plate (the purity of the isolates was confirmed by microscopic examination). The isolates had been maintained on methanol (0.4% V/V) agar plates or on agar plates under an atmosphere of methane and air having a 1:1 V/V gas ratio which had been transferred every two weeks. For growth on methanol, the medium was supplemented with 0.4% methanol. For growth on methane, the gaseous phase of the inoculated flasks was replaced with a gas mixture comprised of methane and air having a ratio of 1:1 on a V/V basis. The inoculated flasks were sealed air-tight and were incubated on a rotary shaker of orbital radius 2.5 cm. at 250 rpm and at 30° C. for two days until turbidity in the medium had developed. The cells were harvested by centrifugation at 10,000×g. at 4° C. for 30 minutes. The cell pellet was washed twice with a 0.05 M phosphate buffer at a pH of 7.0 (containing 0.02 M MgCl2). The washed cells were then suspended in a 0.05 M phosphate buffer at pH 7.0.
(§2) A 0.5 ml. sample of each washed cell suspension (2 mg. cells) was put into 10 ml. vials at 4° C. which were sealed with a rubber cap. The gaseous phase of the vials was removed with vacuum and then was replaced with a gas mixture of the substrate reactant (i.e., alkane or secondary alcohol) and oxygen at a 1:1 V/V ratio. (In the case of a liquid substrate, i.e., secondary alcohol, 10 μl of the substrate was put in the 10 ml. vials). […] Samples of product (1-3 μl) were withdrawn periodically with a microsyringe and the products were analyzed by gas chromatography (ionization flame detector column).
(§3) The procedure in Example 1 was repeated wherein a plurality of the methane-utilizing methylotrophic microorganisms were each grown aerobically in a nutrient medium containing methane as the alcohol dehydrogenase enzyme inducer and as the major carbon and energy source for growth. The cells were harvested and washed as described in Example 1. The resting microbial cells of the induced methane-grown methane-utilizing methylotrophic microorganisms were then contacted with C3 -C6 secondary alcohols in a buffered solution by the procedure of Example 1.
(§4) In this example, the procedure in Example 1 was repeated except that a plurality of methane-utilizing methylotrophic microorganisms were each aerobically grown in a methanol-containing nutrient medium instead of a methane-containing medium. The nutrients in the medium were the same as indicated in Example 1 except that 0.4% V/V methanol was used as the alcohol dehydrogenase inducer and major source of carbon and energy for growth. Following growth, the cells were harvested and washed as described in Example 1.
(§5) The resting cells of the induced methanol-grown methylotrophic microorganisms were then contacted with secondary alcohols in a buffered solution by the procedure described in Example 1.

[2] = system: Methylosinus sporium 5 (NRRL B-11,197); assay: as above; type: cell-based
Description: as §1, §2, §3, §4, §5

[3] = system: secondary alcohol dehydrogenase (SADH), cell-free soluble extract; details: Growth Substrate CH4
Description: (§6) To prepare the cell-free secondary alcohol dehydrogenase (SADH) system, the washed cells were disrupted with a Wave Energy Ultrasonic Oscillator, Model W201 (Wave Energy System, Inc., Newtown, Pa.) and centrifuged at 20,000×g. for 30 minutes. […] The enzyme activity was measured with a fluorescence spectrophotometer (Perkin Elmer, Model MPF 44A) by following the formation of reduced NAD (EX 340 nm, Em 460 nm). The formation of reduced NAD was also followed with an absorption spectrophotometer at 340 nm. The assay system (3 ml.) contained: potassium phosphate buffer pH 7.0; 150 μmol.; NAD 1 μmol.; a given amount of enzyme preparation; and secondary alcohol 10 μmol. The reaction was started by the addition of substrate. One unit of enzyme activity represents the reduction of one μmole NAD per minute. Protein concentrations were determined by the Lowry method (J. Biol. Chem., 193: 255-275 (1951)).
(§7) The experimental procedure for the tests reported in Table VIII were as follows: 1 mg protein of crude extract was added into a 0.5 ml. 0.05 M phosphate buffer (pH 7.0) in a 10-ml. vial. […] The reaction mixture was incubated at 30° C. on a water bath. A 3 μl sample was removed with a syringe at 15 min. of incubation and was assayed with g.l.c. Catalytic activity was also assayed by fluorescence spectrophotometry.

[4] = system: secondary alcohol dehydrogenase (SADH), cell-free soluble extract; details: Growth Substrate CH4; remark: listed apart in the source
Description: as §6, §7

[5] = system: secondary alcohol dehydrogenase (SADH), cell-free soluble extract; assay: oxidation of sec-alcohols by cell-free soluble extracts; type: biochemical, Methylobacterium organophilum CRL 26 (NRRL B-11,222); details: for Oxidation Rate, sec-alcohol to corresponding ketone: soluble crude extract, grown on methanol
Description: as §6, §7

[6] = system: secondary alcohol dehydrogenase (SADH), cell-free soluble extract; details: Growth Substrate CH4; remark: listed apart in the source
Description: as §6, §7

[7] = system: secondary alcohol dehydrogenase (SADH), cell-free soluble extract; details: Growth Substrate CH3 OH
Description: as §6, §7

[8] = system: secondary alcohol dehydrogenase (SADH), cell-free soluble extract; details: Growth Substrate CH3 OH; remark: listed apart in the source
Description: as §6, §7

Pichia sp. NRRL-Y-11328 = assay: sec-alcohols to ketones by cell suspensions of yeasts; type: cell-based
[9] = system: Kloeckera sp. Strain A2 (NRRLY-11,420); assay: as above; type: cell-based
[10] = system: cell extracts (NAD+-dependent secondary alcohol dehydrogenase); assay: sec-alcohols to methyl ketones by cell extracts of yeasts, gas chromatography; type: biochemical, Candida utilis ATCC 26,387; details: grown on methanol
Description: The supernantant liquid was termed the crude extracts.
The reaction mixture, in a total of 3.0 ml., contained 50 mM phosphate buffer, pH 7.0, 20 μmole NAD^+, cell extracts (1 ml.).
The ketone product obtained from oxidation of sec-alcohols by cell extracts of organisms were estimated by flame ionization gas chromatography by using a stainless steel column (12 ft. by 1/8 in.) packed with 10% Carbowax 20 M on 80/100 chromosorb w column (Perkin Elmer Corp., Norwalk, Conn.). The column temperature was maintained isothermally at 130° C. and the carrier gas flow was 30 ml. of helium per min. […] The protein content of cell-suspensions was determined by the Lowry et al. method.
NRRL Y-11,328 Torulopsis sp.

[11] = system: cell extracts (NAD+-dependent secondary alcohol dehydrogenase); assay: as above; type: biochemical, Hansenula polymorpha ATCC 26,012; details: grown on methanol

SMILES	Conversion Rates, sec-alcohol to corresponding ketone ([1]; cells grown on methane)	Conversion Rates, sec-alcohol to corresponding ketone ([1]; cells grown on methanol)	Conversion Rates, sec-alcohol to corresponding ketone ([2]; cells grown on methane)	Conversion Rates, sec-alcohol to corresponding ketone ([2]; cells grown on methanol)	Oxidation Rate, sec-alcohol to corresponding ketone [5]	Conversion Rate, sec-alcohol to corresponding ketone (Pichia sp. NRRL-Y-11328; Growth Substrate Ethanol)	Conversion Rate, sec-alcohol to corresponding ketone (Pichia sp. NRRL-Y-11328; Growth Substrate Methanol)	Conversion Rate, sec-alcohol to corresponding ketone (Pichia sp. NRRL-Y-11328; Growth Substrate Methylamine)	Conversion Rate, sec-alcohol to corresponding ketone (Pichia sp. NRRL-Y-11328; Growth Substrate Methylformate)	Conversion Rate, sec-alcohol to corresponding ketone (Pichia sp. NRRL-Y-11328; Growth Substrate Propylamine)	Conversion Rate, sec-alcohol to corresponding ketone ([9]; Growth Substrate Ethanol)	Conversion Rate, sec-alcohol to corresponding ketone ([9]; Growth Substrate Methanol)	Conversion Rate, sec-alcohol to corresponding ketone ([9]; Growth Substrate Methylamine)	Conversion Rate, sec-alcohol to corresponding ketone ([9]; Growth Substrate Methylformate)	Conversion Rate, sec-alcohol to corresponding ketone ([9]; Growth Substrate Propylamine)	Conversion Rate, sec-alcohol to methyl ketone [10]	Conversion Rate, sec-alcohol to methyl ketone [11]	further results
CCC(C)O (stereo not drawn) [2-Butanol, 2-butanol]	3.5 μmoles/hr/mg protein	3.0 μn moles/hr/mg protein	3.0 μmoles/hr/mg protein	3.5 μn moles/hr/mg protein	2.5 nmole/min/mg protein	6.2 μmoles/hr/mg of protein	6.8 μmoles/hr/mg of protein	5.1 μmoles/hr/mg of protein	6.9 μmoles/hr/mg of protein	2.1 μmoles/hr/mg of protein	5.7 μmoles/hr/mg of protein	5.9 μmoles/hr/mg of protein	5.4 μmoles/hr/mg of protein	5.9 μmoles/hr/mg of protein	4.2 μmoles/hr/mg of protein	4.92 μmoles/hr/mg Protein	5.2 μmoles/hr/mg Protein	Conversion Rate, 2-butanol to 2-butanone [3]: 0.5 nmoles/min/mg protein; Conversion Rate, 2-butanol to 2-butanone [4]: 2.5 nmoles/min/mg protein; Conversion Rate, 2-butanol to 2-butanone ([5]; Growth Substrate CH3 NH2): 2.0 nmoles/min/mg protein; Conversion Rate, 2-butanol to 2-butanone ([5]; Growth Substrate CH3 OH): 2.5 nmoles/min/mg protein; Conversion Rate, 2-butanol to 2-butanone ([5]; Growth Substrate CH4): 1.8 nmoles/min/mg protein; Conversion Rate, 2-butanol to 2-butanone ([5]; Growth Substrate HCOOCH3): 2.0 nmoles/min/mg protein; Conversion Rate, 2-butanol to 2-butanone [6]: 2.6 nmoles/min/mg protein; Conversion Rate, 2-butanol to 2-butanone [7]: 5.0 nmoles/min/mg protein; Conversion Rate, 2-butanol to 2-butanone [8]: 2.2 nmoles/min/mg protein
CCCCC(C)O (stereo not drawn) [2-Hexanol, 2-hexanol]					0 nmole/min/mg protein	0.28 μmoles/hr/mg of protein	0.50 μmoles/hr/mg of protein	0.31 μmoles/hr/mg of protein	0.48 μmoles/hr/mg of protein	0.21 μmoles/hr/mg of protein	0.12 μmoles/hr/mg of protein	0.25 μmoles/hr/mg of protein	0.10 μmoles/hr/mg of protein	0.28 μmoles/hr/mg of protein	0.11 μmoles/hr/mg of protein	0.45 μmoles/hr/mg Protein	0.51 μmoles/hr/mg Protein	
CCCC(C)O (stereo not drawn) [2-Pentanol, 2-pentanol]					0.1 nmole/min/mg protein	1.0 μmoles/hr/mg of protein	1.2 μmoles/hr/mg of protein	0.72 μmoles/hr/mg of protein	0.98 μmoles/hr/mg of protein	0.60 μmoles/hr/mg of protein	1.0 μmoles/hr/mg of protein	1.2 μmoles/hr/mg of protein	1.0 μmoles/hr/mg of protein	1.2 μmoles/hr/mg of protein	0.92 μmoles/hr/mg of protein	0.82 μmoles/hr/mg Protein	1.0 μmoles/hr/mg Protein	
CC(C)O [2-Propanol, 2-propanol]	1.3 μmoles/hr/mg protein	1.5 μn moles/hr/mg protein	0.30 μmoles/hr/mg protein	0.45 μn moles/hr/mg protein	2.1 nmole/min/mg protein	4.5 μmoles/hr/mg of protein	5.2 μmoles/hr/mg of protein	4.2 μmoles/hr/mg of protein	4.9 μmoles/hr/mg of protein	3.2 μmoles/hr/mg of protein	4.5 μmoles/hr/mg of protein	4.8 μmoles/hr/mg of protein	4.0 μmoles/hr/mg of protein	4.9 μmoles/hr/mg of protein	4.0 μmoles/hr/mg of protein	4.5 μmoles/hr/mg Protein	4.8 μmoles/hr/mg Protein	
